“And” between values parts separate entries of the source, which are not always exact repeats. Equal entries are not always repeated.
System: iPTH
Test: Phase 2 Main Study: iPTH change from baseline in CKD patients with SHPT
Format: in vivo, human
Details: for iPTH levels reduced from baseline (FIG. 1) / mean percentage suppression in iPTH from baseline, peak, Day 90, 2 to 4 hours post-dose (exploratory analysis) / mean percentage suppression in iPTH from baseline at the end of 90 days / proportion of patients with ≥30% reduction in iPTH from baseline at end of 90 days (responder rate): patients on dialysis
Protocol: A randomized, double-blind, placebo-controlled phase 2 clinical study was conducted to assess the efficacy, pharmacokinetics (PK), pharmacodynamics (PD) and safety of 2-methyl-5-((2R,4S)-2-((((R)-1-(naphthalen-1-yl)ethyl)amino)methyl) chroman yl)benzoic acid, hydrochloride (Compound 3), as a monotherapy in patients with CKD with secondary hyperparathyroidism (SHPT). The patients enrolled in the study were either on dialysis or not on dialysis. Patients could continue taking doses (whether stable dosing or otherwise) of calcium supplements, phosphate binders, vitamin D, vitamin D analogues or a combination thereof for the treatment of SHPT in combination with Compound 3. Patients can take at least one calcium supplement, phosphate binder, vitamin D, vitamin D analogue or a combination thereof concurrently or concomitantly with Compound 3. Dosing for such calcium supplements, phosphate binders, vitamin D, vitamin D analogues or a combination thereof for the treatment of SHPT can be individualized based on patient's iPTH levels, and/or can correlate with doses presently used for the treatment of SHPT.
This was a double-blind, randomized, placebo-controlled, multicenter study with an additional non-randomized open-label arm conducted in patients with secondary hyper-parathyroidism (SHPT) associated with CKD which was further stratified in 2 groups: on dialysis and not on dialysis. The iPTH levels of patients in the “on dialysis” group were in a range of 428.2 pg/ml to 1240.6 pg/ml (mean 857.76 pg/ml) while those in the “not on dialysis” group were in a range of 125.0 pg/ml to 654.7 pg/ml (mean 297.83 pg/ml).
Total 179 patients were enrolled in this study of which 108 patients were on dialysis and 71 were not on dialysis. Patients of on dialysis group were further randomized to 3 subgroups administering 10 mg Compound 3, 25 mg Compound 3, or placebo once daily in a double blind fashion enrolling 35 patients, 36 patients and 18 patients, respectively, and an additional non-randomized open label arm enrolling 19 patients receiving 20 mg Compound 3, twice daily. A total of 98 patients completed the study. 10 patients discontinued the study. None of the patients discontinued the study due to adverse drug reactions.
Patients on not on dialysis group were randomized to two treatment subgroups administering 10 mg Compound 3, or placebo once daily in a double blind fashion enrolling 37 and 18 patients, respectively, and an additional non-randomized open label arm enrolling 16 patients receiving 5 mg Compound 3, twice daily. 4 patients discontinued the study. None of the patients discontinued the study due to adverse drug reactions.
The efficacy, PK, PD and safety of Compound 3, as a monotherapy in patients with CKD with secondary hyperparathyroidism (SHPT), were assessed. One objective of the study was to evaluate the mean percentage change in iPTH from baseline at the end of 90 days. Yet another objective of the study was to determine the proportion of patients with >30% reduction in iPTH from baseline at the end of 90 days. Yet another objective of the study was to ensure safety of patients.
For efficacy assessments, the primary efficacy assessment included measurement of iPTH and the exploratory efficacy assessment included measurement of parathyroid gland size at scheduled time points. Blood samples for measurement of iPTH were collected during Day −30 to Day −1 (Screening Period); Day 1; Day 8+/−3 days; Day 15+/−3 days; Day 30+/−3 days; Day 60+/−3 days; and Day 90+/−3 days (EOT/Early Discontinuations). Two blood samples were collected during Screening Period and higher of these 2 values was considered as a baseline value. During treatment period of the Main Study, blood samples were collected on Day 30, Day 60, and Day 90. If the blood sample collected on Day 90 could not be analysed for any reason, the second blood sample had to be collected within 3 days of end of treatment (EOT). […]

[1] = patients not on dialysis, 10 mg QD

For `Cc1ccc([C@@H]2C[C@H](CN[C@H](C)c3cccc4ccccc34)Oc3ccccc32)cc1C(=O)O.Cl` [Compound 3, 2-methyl-5-((2R,4S)-2-((((R)-1-(naphthalen-1-yl)ethyl)amino)methyl)chroman-4-yl)benzoic acid hydrochloride], the “iPTH levels reduced from baseline (FIG. 2)” value (patients not on dialysis, 5 mg BID) was “more than 30%”, the “mean percentage suppression in iPTH from baseline at the end of 90 days (2 to 4 hours post-dose), exploratory analysis” value (patients not on dialysis, 5 mg BID open label arm) was −55.03% and the “iPTH levels reduced from baseline (FIG. 2)” value [1] was “more than 30%”. The “mean percentage suppression in iPTH from baseline at the end of 90 days (2 to 4 hours post-dose), exploratory analysis” value [1] was −48.07%, the “mean percentage suppression in iPTH versus Placebo at the end of Day 90” value (patients not on dialysis, 10 mg QD and 5 mg BID) was “No significant difference” and the “difference in proportion of patients who achieved ≥30% reduction in iPTH from baseline at the end of 90 days versus Placebo” value (patients not on dialysis, QD or BID dosing regimen, 10 mg per day) was “not significant”. The “iPTH levels reduced from baseline (FIG. 1)” value (10 mg QD) was 25.65%, the “mean percentage suppression in iPTH from baseline, peak, Day 90, 2 to 4 hours post-dose (exploratory analysis)” value (10 mg QD) was −79.54% and the “mean percentage suppression in iPTH from baseline at the end of 90 days” value (10 mg QD, per protocol) was −25.65%. For the same compound, the “iPTH levels reduced from baseline (FIG. 1)” value (20 mg BID) was “more than 30%”, the “mean percentage suppression in iPTH from baseline at the end of 90 days” value (20 mg BID open label arm) was −82.42% and the “mean percentage suppression in iPTH from baseline, peak, Day 90, 2 to 4 hours post-dose (exploratory analysis)” value (20 mg BID open label arm) was −93.02%. The “proportion of patients with ≥30% reduction in iPTH from baseline at end of 90 days (responder rate)” value (20 mg BID, hydrochloride) was 93% and ~90%, the “iPTH levels reduced from baseline (FIG. 1)” value (25 mg QD) was “more than 30%” and the “mean percentage suppression in iPTH from baseline, peak, Day 90, 2 to 4 hours post-dose (exploratory analysis)” value (25 mg QD) was −85.79%. The “proportion of patients with ≥30% reduction in iPTH from baseline at end of 90 days (responder rate)” value (25 mg QD) was “around 80%” and the “mean percentage suppression in iPTH from baseline at the end of 90 days” value (25 mg QD, per protocol) was −56.65%.
